Tested on: Caco-2 cells
Assay: Caco-2 membrane permeability and efflux rate
Type: in vitro ADME
Details: Caco-2, 5 μM, 2 hours; for Papp(B-A): basal end to top end; for Papp(A-B): top end to basal end
Summary of the method: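 Caco-2 monolayers after 14-18 days' culture; compound at 5 μM final in HBSS (10 mM HEPES, pH 7.4), apical-to-basal and basal-to-apical, 2 h at 37° C. LC/MS/MS gives Papp (10-6 cm/s) and efflux ratio; lucifer yellow checks monolayer integrity.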

Row | SMILES | ER (efflux rate) | Papp(B-A) | Papp(A-B)
1 | CC(O)[C@H](C)Nc1ncc(C(F)(F)F)c(-c2c[nH]c3c(P(C)(C)=O)cccc23)n1 (single isomer, unassigned) [Compound 130] | 6.03 | 35.08 10^−6, cm/s | 5.82 10^−6, cm/s
2 | CC(CO)CNc1ncc(C(F)(F)F)c(-c2c[nH]c3c(P(C)(C)=O)cccc23)n1 (single isomer, unassigned) [Compound 150] | 5.95 | 27.87 10^−6, cm/s | 4.68 10^−6, cm/s
3 | CP(C)(=O)c1cccc2c(-c3nc(NCC4CC4CO)ncc3C(F)(F)F)c[nH]c12 (single isomer, unassigned) [Compound 144] | 12.7 | 36.73 10^−6, cm/s | 2.89 10^−6, cm/s
4 | CP(C)(=O)c1cccc2c(-c3nc(NC4(CO)CCOC4)ncc3C(F)(F)F)c[nH]c12 (single isomer, unassigned) [Compound 119] | 15.3 | 34.09 10^−6, cm/s | 2.23 10^−6, cm/s
